Experimental data: ChEMBL document CHEMBL6182925 (J Med Chem, 2025)
Values after ≈ are worked out from the molar mass of the structure shown. Active and inactive are the calls of the source. The rule behind the calls is not given here.

Legend:
[1] = target: T1, Alpha-2A adrenergic receptor (Homo sapiens) (UniProt P08913); test: Inhibition of alpha 2A adrenergic receptor (unknown origin) at 10 uM by CEREP analysis relative to control
T1 sequence (whole entry): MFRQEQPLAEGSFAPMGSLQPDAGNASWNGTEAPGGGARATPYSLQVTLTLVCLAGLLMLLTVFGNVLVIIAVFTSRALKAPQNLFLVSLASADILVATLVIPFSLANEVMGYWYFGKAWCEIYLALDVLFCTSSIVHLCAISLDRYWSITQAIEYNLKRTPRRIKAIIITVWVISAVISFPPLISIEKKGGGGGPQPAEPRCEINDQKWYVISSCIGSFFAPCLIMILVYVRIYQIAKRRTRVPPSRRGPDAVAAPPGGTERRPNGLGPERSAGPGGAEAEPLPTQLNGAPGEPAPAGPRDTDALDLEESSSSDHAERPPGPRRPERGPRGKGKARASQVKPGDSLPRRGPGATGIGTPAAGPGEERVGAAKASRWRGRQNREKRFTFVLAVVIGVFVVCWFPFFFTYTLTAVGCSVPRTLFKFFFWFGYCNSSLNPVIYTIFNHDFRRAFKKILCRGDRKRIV

[2] = Oral bioavailability in Balb/c mouse at 10 mg/kg; type: ADME, organism-based; settings: in vivo
[3] = target: Hepatocyte growth factor receptor (Homo sapiens, UniProt P08581, D1228N); test: Inhibition of N-terminal GST-tagged recombinant human c-MET D1228N mutant (956 to end residues) extracted from baculovirus infected Sf9 cells using 5-FAM-KKKKEEIYFFF-CONH2 as substrate preincubated for 30 mins followed by ATP addition measured after 60 mins by fluorescence-based microfluidic mobility shift assay
Hepatocyte growth factor receptor (Homo sapiens, UniProt P08581, D1228N), sequence (P08581 25-1390 D1228N limits assumed): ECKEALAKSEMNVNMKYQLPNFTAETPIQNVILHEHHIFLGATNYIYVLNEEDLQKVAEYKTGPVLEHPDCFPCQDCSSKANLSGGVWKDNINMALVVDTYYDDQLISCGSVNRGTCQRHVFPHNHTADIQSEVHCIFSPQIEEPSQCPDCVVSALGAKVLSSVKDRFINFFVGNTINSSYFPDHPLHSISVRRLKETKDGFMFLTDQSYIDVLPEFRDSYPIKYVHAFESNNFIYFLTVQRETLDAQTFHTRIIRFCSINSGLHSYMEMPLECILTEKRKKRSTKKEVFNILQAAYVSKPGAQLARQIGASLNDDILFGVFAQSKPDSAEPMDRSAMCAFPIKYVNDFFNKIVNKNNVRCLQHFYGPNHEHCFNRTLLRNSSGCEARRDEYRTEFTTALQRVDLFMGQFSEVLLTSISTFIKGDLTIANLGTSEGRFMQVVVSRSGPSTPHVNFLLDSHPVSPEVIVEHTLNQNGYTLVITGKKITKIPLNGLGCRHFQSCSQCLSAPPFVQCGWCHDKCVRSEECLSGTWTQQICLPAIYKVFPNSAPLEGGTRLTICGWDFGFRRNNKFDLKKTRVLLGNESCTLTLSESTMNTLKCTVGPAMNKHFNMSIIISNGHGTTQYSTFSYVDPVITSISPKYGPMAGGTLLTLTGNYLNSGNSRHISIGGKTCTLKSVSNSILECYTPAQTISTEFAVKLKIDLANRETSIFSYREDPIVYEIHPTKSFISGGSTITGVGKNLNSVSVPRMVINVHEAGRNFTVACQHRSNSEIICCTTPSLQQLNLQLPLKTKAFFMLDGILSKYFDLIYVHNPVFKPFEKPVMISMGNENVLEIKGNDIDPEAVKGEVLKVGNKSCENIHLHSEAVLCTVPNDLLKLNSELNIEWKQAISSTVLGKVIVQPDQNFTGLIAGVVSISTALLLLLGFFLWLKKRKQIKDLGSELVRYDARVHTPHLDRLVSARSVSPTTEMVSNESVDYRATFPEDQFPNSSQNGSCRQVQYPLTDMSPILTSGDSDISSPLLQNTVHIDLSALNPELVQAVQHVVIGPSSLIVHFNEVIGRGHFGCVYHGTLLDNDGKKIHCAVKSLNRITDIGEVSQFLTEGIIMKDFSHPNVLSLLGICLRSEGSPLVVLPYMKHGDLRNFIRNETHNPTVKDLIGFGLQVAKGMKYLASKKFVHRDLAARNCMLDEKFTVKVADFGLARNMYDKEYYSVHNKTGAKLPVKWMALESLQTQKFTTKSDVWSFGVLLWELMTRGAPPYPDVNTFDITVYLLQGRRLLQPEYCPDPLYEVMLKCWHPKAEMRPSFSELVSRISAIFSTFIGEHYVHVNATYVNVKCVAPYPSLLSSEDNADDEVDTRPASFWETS

[4] = Clearance in male Sprague-Dawley rat at 3 mg/kg, iv; type: ADME, organism-based; settings: in vivo
[5] = Toxicity in athymic BALB/c nude mouse xenografted with human LU2503 cells assessed as body weight loss at 2 to 60 mg/kg, po bid treated for 10 to 21 days; type: organism-based; settings: in vivo, dose lower 2 mg/kg, time lower 10 day, dose upper 60 mg/kg, time upper 21 day
Homo sapiens [6] = organism: Homo sapiens; test: Inhibition of c-MET Y1230 mutant (unknown origin) at 100 nM in presence of ATP by HotSpot Kinome Selectivity analysis
Homo sapiens [7] = organism: Homo sapiens; test: Inhibition of c-MET G1163R mutant (unknown origin) at 100 nM in presence of ATP by HotSpot Kinome Selectivity analysis
[8] = Toxicity in rat assessed as drug tolerance measured for 28 days; settings: in vivo, 672 h, time 28 day
[9] = target: 5-hydroxytryptamine receptor 2B (Homo sapiens) (UniProt P41595); test: Inhibition of 5-HT2B receptor (unknown origin) at 10 uM by CEREP analysis relative to control
5-hydroxytryptamine receptor 2B (Homo sapiens), sequence (P41595 whole entry): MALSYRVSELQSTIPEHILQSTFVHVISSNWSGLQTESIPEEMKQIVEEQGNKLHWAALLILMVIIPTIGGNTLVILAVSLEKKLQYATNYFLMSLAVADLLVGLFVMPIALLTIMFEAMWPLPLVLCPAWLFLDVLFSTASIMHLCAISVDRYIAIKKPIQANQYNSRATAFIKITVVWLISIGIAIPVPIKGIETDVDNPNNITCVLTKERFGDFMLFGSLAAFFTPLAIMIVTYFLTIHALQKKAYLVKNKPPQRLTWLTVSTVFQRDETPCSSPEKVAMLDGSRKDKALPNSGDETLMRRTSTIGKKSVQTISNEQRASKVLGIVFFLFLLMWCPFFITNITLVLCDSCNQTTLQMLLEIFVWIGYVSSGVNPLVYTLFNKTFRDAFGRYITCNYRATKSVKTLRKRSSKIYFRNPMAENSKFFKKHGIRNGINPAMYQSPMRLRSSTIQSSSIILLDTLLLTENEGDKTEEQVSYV

[10] = AUClast in male Beagle dog at 10 mg/kg, po; type: ADME, organism-based, Canis lupus familiaris; settings: in vivo
[11] = target: 5-hydroxytryptamine receptor 1B (Homo sapiens) (UniProt P28222); test: Inhibition of 5-HT1B receptor (unknown origin) at 10 uM by CEREP analysis relative to control
5-hydroxytryptamine receptor 1B (Homo sapiens), sequence (P28222 whole entry): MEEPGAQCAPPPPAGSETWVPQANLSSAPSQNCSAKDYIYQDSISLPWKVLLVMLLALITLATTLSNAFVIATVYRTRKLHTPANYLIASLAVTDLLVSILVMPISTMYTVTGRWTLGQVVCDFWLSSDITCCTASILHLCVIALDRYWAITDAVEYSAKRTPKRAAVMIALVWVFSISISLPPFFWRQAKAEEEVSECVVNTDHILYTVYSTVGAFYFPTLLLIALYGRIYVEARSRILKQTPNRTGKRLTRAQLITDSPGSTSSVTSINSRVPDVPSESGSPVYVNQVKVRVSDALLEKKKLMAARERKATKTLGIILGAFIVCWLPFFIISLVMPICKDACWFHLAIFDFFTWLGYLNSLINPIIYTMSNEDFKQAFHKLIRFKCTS

BaF3 [12] = test: cells; settings: Mus musculus, BaF3, 72 h
[13] = AUClast in male Sprague-Dawley rat at 10 mg/kg, po; type: ADME, organism-based; settings: in vivo
[14] = target: Hepatocyte growth factor receptor (Homo sapiens, UniProt P08581); test: Inhibition of N-terminal GST-tagged wild-type human c-MET (956 to 1390 residues) extracted from baculovirus infected Sf21 cells using 5-FAM-KKKKEEIYFFF-CONH2 as substrate preincubated for 30 mins followed by ATP addition measured after 60 mins by fluorescence-based microfluidic mobility shift assay
Hepatocyte growth factor receptor (Homo sapiens, UniProt P08581), sequence (P08581 whole entry, the tested form may be a part): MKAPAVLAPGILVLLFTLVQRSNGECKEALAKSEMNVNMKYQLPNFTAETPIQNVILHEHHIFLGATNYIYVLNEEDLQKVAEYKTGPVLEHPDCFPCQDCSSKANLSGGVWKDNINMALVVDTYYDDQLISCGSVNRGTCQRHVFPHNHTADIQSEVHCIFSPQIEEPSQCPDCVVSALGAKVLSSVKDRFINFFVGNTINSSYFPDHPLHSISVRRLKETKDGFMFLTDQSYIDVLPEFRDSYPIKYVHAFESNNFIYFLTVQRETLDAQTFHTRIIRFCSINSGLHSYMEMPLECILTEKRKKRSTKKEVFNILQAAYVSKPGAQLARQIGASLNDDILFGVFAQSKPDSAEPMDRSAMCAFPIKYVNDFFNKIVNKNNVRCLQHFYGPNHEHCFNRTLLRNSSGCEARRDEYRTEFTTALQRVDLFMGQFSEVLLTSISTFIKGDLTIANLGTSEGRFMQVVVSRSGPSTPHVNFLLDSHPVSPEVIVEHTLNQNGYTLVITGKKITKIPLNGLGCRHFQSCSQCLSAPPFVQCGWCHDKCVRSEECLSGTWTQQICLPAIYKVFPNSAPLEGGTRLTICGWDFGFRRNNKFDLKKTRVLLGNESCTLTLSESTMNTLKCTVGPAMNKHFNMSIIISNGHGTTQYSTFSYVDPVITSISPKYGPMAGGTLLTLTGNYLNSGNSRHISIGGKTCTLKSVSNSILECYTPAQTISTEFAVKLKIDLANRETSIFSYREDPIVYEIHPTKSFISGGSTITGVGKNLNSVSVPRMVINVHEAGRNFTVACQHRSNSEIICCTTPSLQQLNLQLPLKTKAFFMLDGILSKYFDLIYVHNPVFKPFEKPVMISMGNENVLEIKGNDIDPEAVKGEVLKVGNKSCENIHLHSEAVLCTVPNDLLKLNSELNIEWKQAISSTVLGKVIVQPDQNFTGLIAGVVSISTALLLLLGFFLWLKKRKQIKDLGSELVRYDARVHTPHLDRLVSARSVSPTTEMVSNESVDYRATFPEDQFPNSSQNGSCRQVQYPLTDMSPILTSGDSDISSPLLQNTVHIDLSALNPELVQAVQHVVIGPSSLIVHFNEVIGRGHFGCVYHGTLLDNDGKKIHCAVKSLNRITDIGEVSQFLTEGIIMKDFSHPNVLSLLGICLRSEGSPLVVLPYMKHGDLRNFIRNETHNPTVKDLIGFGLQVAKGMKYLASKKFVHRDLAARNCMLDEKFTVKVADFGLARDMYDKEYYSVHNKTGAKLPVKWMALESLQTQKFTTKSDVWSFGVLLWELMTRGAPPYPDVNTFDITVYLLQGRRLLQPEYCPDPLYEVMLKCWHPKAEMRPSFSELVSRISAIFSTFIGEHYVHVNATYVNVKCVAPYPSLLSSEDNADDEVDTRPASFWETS

[15] = Kinetic solubility of compound at pH 2; type: physicochemical; settings: buffer, read-out: Kinetic_solubility
EBC-1 = test: Antitumor activity against human EBC-1 cells xenografted in athymic BALB/c nude mouse at 2 mg/kg, po bid treated for 21 days relative to control; type: functional; settings: EBC-1, 504 h, time 21 day, read-out: TGI
[16] = Kinetic solubility of compound at pH 4.5; type: physicochemical; settings: buffer, read-out: Kinetic_solubility
[17] = Clearance in male Beagle dog at 1 mg/kg, iv; type: ADME, organism-based, Canis lupus familiaris; settings: in vivo
cells = settings: Mus musculus, BaF3/TRP-Met, 72 h
[18] = Oral bioavailability in male Beagle dog at 10 mg/kg; type: ADME, organism-based, Canis lupus familiaris; settings: in vivo
Mus musculus = test: In vivo inhibition of MET phosphorylation in human LU2503 cells xenografted in athymic BALB/c nude mouse at 20 to 60 mg/kg, po measured after 12 hrs post-dose; type: functional, organism-based; settings: dose 20-60 mg/kg
BaF3 [19] = test: cells; settings: Mus musculus, BaF3, 72 h; remark: listed apart in the source
AhR = AhR (Homo sapiens, UniProt P35869); test: Induction of AhR (unknown origin) assessed as fold increase in activity at 1 uM relative to control; type: toxicity; settings: read-out: FC
AhR, sequence (P35869 whole entry): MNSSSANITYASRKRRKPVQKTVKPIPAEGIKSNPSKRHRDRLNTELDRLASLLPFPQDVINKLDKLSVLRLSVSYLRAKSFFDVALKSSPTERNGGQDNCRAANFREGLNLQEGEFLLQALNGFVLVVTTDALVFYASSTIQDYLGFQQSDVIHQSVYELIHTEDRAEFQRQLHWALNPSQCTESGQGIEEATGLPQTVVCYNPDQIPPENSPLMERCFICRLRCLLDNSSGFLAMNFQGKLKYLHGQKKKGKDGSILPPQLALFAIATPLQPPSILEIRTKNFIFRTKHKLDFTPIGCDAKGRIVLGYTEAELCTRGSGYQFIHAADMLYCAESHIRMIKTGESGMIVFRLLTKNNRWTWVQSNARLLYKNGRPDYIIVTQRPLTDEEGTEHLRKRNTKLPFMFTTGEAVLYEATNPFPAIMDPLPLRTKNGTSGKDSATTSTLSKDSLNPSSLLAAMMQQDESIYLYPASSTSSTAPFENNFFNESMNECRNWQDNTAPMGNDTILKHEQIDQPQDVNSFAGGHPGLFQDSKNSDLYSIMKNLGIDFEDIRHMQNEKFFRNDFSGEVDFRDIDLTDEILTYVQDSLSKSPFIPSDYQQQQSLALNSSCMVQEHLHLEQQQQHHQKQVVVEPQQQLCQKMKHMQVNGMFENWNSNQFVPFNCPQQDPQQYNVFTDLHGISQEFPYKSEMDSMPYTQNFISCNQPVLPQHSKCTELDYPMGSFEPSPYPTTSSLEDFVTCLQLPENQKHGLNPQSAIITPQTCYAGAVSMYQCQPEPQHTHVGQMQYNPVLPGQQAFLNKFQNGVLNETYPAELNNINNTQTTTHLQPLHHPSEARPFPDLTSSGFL

[20] = Half life in male Beagle dog at 1 mg/kg, iv; type: ADME, organism-based, Canis lupus familiaris; settings: in vivo
BaF3 [21] = test: Antitumor activity against mouse BaF3 cells harboring TPR-D1228N mutant cells allografted in athymic BALB/c nude mouse at 20 mg/kg, po bid treated for 10 days relative to control; type: functional; settings: BaF3, 240 h, time 10 day, read-out: TGI
BaF3 [22] = test: cells; settings: Mus musculus, BaF3, 72 h; remark: listed apart in the source
BaF3 [23] = test: Antitumor activity against mouse BaF3 cells harboring TPR-D1228N mutant cells allografted in athymic BALB/c nude mouse at 2 mg/kg, po bid treated for 10 days relative to control; type: functional; settings: BaF3, 240 h, time 10 day, read-out: TGI
BaF3 [24] = test: cells; settings: Mus musculus, BaF3, 72 h; remark: listed apart in the source
[25] = Oral bioavailability in male Sprague-Dawley rat at 10 mg/kg; type: ADME, organism-based; settings: in vivo

COc1cc2nccc(Oc3c(F)cc(NC(=O)c4cnccc4OC)cc3F)c2cc1O[C@@H](C)CO
inhibition [1]: 6%
bioavailability [2]: 100%
IC50 [3]: 0.2 nM
clearance [4]: 11.2 mL/min/kg
Activity [5]: Non-toxic
inhibition (Homo sapiens [6]): 0%
inhibition (Homo sapiens [7]): 63%
Activity [8]: Non-toxic
inhibition [9]: 48%
AUC(0-t) [10]: 26400 ng·h/mL
inhibition [11]: -3%
EC50 (BaF3 [12]): 0.7 nM
AUC(0-t) [13]: 18600 ng·h/mL
IC50 [14]: 0.2 nM
solubility kinetic [15]: 288 µM (≈ 147 µg/mL)
inhibition in vivo at 2 mg/kg (EBC-1): 25%
solubility kinetic [16]: 145 µM (≈ 74.2 µg/mL)
clearance [17]: 3.5 mL/min/kg
EC50 (cells): 11 nM
bioavailability [18]: 56%
inhibition (Mus musculus): Active
EC50 (BaF3 [19]): 8.6 nM
fold induction at 1 µM (AhR): < 1.5
half-life [20]: 6.3 h
inhibition in vivo at 20 mg/kg (BaF3 [21]): 89%
EC50 (BaF3 [22]): 13 nM
inhibition in vivo at 2 mg/kg (BaF3 [23]): 26%
EC50 (BaF3 [24]): 3.2 nM
bioavailability [25]: 100%
